Results taken from patent US20120115724A1, “METHOD OF CONTROLLING UNDESIRED VEGETATION” (SYNGENTA CROP PROTECTION LLC, priority 2009, published 2012).

Legend:
Type in all cases: in vivo
[1] = system: CHEAL Chenopodium album; assay: Post-emergence crop and weed test (Example 15); settings: 360 h, 30 g/ha, after 15 days, read-out: Percentage damage CHEAL
Protocol: (§1) Seeds of crop and representative weed species were sown in standard soil in pots. After cultivation for 14 days under controlled conditions in a glasshouse (at 22/16° C., day/night; 16 hours light; 65% humidity), the plants were sprayed. The spray solution was prepared by dissolving the technical active ingredient in acetone containing 10.56 wt % Emulsogen EL, 42.22 wt % N-methylpyrrolidone and 2.22 wt % DPG-monoethyl ether to give a 5% stock solution. This was then diluted with water containing 0.2% (v/v) of the adjuvant X-77 to give the desired treatment concentration.
(§2) The test plants were then grown on under controlled conditions in a glasshouse (at 22/16° C., day/night; 16 hours light; 65% humidity) and watered twice daily. After 15 days the test was evaluated (100 =total damage to plant; 0 =no damage to plant).

[2] = system: VERPE Veronica persica; assay: Post-emergence crop and weed test (Example 15); settings: 360 h, 30 g/ha, after 15 days, read-out: Percentage damage VERPE
Protocol: as §1, §2

[3] = system: AMARE Amaranthus retroflexus; assay: Post-emergence crop and weed test (Example 15); settings: 360 h, 30 g/ha, after 15 days, read-out: Percentage damage AMARE
Protocol: as §1, §2

[4] = system: SINAR Sinapis arvensis; assay: Post-emergence crop and weed test (Example 15); settings: Mutarda arvensis, 360 h, 30 g/ha, after 15 days, read-out: Percentage damage SINAR
Protocol: as §1, §2

[5] = system: IPOHE Ipomoea hederacea; assay: Post-emergence crop and weed test (Example 15); settings: 360 h, 30 g/ha, after 15 days, read-out: Percentage damage IPOHE
Protocol: as §1, §2

[6] = system: XANST Xanthium strumarium; assay: Post-emergence crop and weed test (Example 15); settings: 360 h, 30 g/ha, after 15 days, read-out: Percentage damage XANST
Protocol: as §1, §2

[7] = system: POLCO Polygonum convolvulus; assay: Post-emergence crop and weed test (Example 15); settings: Fallopia convolvulus, 360 h, 30 g/ha, after 15 days, read-out: Percentage damage POLCO
Protocol: as §1, §2

[8] = system: ABUTH Abutilon theophrasti; assay: Post-emergence crop and weed test (Example 15); settings: 360 h, 30 g/ha, after 15 days, read-out: Percentage damage ABUTH
Protocol: as §1, §2

[9] = system: GALAP Galium aparine; assay: Post-emergence crop and weed test (Example 15); settings: 360 h, 30 g/ha, after 15 days, read-out: Percentage damage GALAP
Protocol: as §1, §2

[10] = system: SIDSP Sida spinosa; assay: Post-emergence crop and weed test (Example 15); settings: 360 h, 30 g/ha, after 15 days, read-out: Percentage damage SIDSP
Protocol: as §1, §2

[11] = system: GLXMA Soybean; assay: Post-emergence crop and weed test (Example 15); settings: Glycine max, 360 h, 30 g/ha, after 15 days, read-out: Percentage damage GLXMA
Protocol: as §1, §2

[12] = system: KCHSC Kochia scoparia; assay: Post-emergence crop and weed test (Example 15); settings: Bassia scoparia, 360 h, 30 g/ha, after 15 days, read-out: Percentage damage KCHSC
Protocol: as §1, §2

[13] = system: EPHHL Euphorbia heterophylla; assay: Post-emergence crop and weed test (Example 15); settings: 360 h, 30 g/ha, after 15 days, read-out: Percentage damage EPHHL
Protocol: as §1, §2

[14] = system: Alopecurus myosuroides (ALOMY); assay: Post-emergence biological efficacy (Example 14); settings: Alopecurus myosuroides, 312 h; post-emergence, 1,000 g/ha, after 13 days; read-out: Percentage damage ALOMY
Procedure, shortened: (§3)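 Visual damage rating, 0 (none) to 100 (total), taken 13 days after spraying. Plants sown in standard soil, grown 8 days at 24/16 °C, 14 h light, 65% RH, then treated at 250 or 1000 g/ha from acetone/water 50:50 with 0.5% Tween 20; watered twice daily.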

[15] = system: Solanum nigrum (SOLNI); assay: Post-emergence biological efficacy (Example 14); settings: Solanum nigrum, 312 h; post-emergence, 1,000 g/ha, after 13 days; read-out: Percentage damage SOLNI
Procedure, shortened: as §3

[16] = system: Echinochloa crus-galli (ECHCG); assay: Post-emergence biological efficacy (Example 14); settings: Echinochloa crus-galli, 312 h; post-emergence, 1,000 g/ha, after 13 days; read-out: Percentage damage ECHCG
Procedure, shortened: as §3

[17] = system: Amaranthus retroflexus (AMARE); assay: Post-emergence biological efficacy (Example 14); settings: Amaranthus retroflexus, 312 h; post-emergence, 1,000 g/ha, after 13 days; read-out: Percentage damage AMARE
Procedure, shortened: as §3

[18] = system: Ipomea hederaceae (IPOHE); assay: Post-emergence biological efficacy (Example 14); settings: Ipomoea hederacea, 312 h; post-emergence, 1,000 g/ha, after 13 days; read-out: Percentage damage IPOHE
Procedure, shortened: as §3

[19] = system: Setaria faberi (SETFA); assay: Post-emergence biological efficacy (Example 14); settings: Setaria faberi, 312 h; post-emergence, 1,000 g/ha, after 13 days; read-out: Percentage damage SETFA
Procedure, shortened: as §3

[20] = system: Alopecurus myosuroides (ALOMY); assay: Pre-emergence biological efficacy (Example 13); settings: Alopecurus myosuroides, 312 h; pre-emergence, 1,000 g/ha, after 13 days; read-out: Percentage damage ALOMY
Procedure, shortened: (§4)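 Pre-emergence spray, 250 or 1000 g/ha, applied one day post-sowing; formulation acetone/water 50:50 + 0.5% Tween 20, diluted aqueous. Glasshouse 24/16 °C, 14 h light, 65% RH, watered twice daily. Scored day 13, 0–100% damage.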

[21] = system: Solanum nigrum (SOLNI); assay: Pre-emergence biological efficacy (Example 13); settings: Solanum nigrum, 312 h; pre-emergence, 1,000 g/ha, after 13 days; read-out: Percentage damage SOLNI
Procedure, shortened: as §4

[22] = system: Echinochloa crus-galli (ECHCG); assay: Pre-emergence biological efficacy (Example 13); settings: Echinochloa crus-galli, 312 h; pre-emergence, 1,000 g/ha, after 13 days; read-out: Percentage damage ECHCG
Procedure, shortened: as §4

[23] = system: Amaranthus retroflexus (AMARE); assay: Pre-emergence biological efficacy (Example 13); settings: Amaranthus retroflexus, 312 h; pre-emergence, 1,000 g/ha, after 13 days; read-out: Percentage damage AMARE
Procedure, shortened: as §4

[24] = system: Ipomea hederaceae (IPOHE); assay: Pre-emergence biological efficacy (Example 13); settings: Ipomoea hederacea, 312 h; pre-emergence, 1,000 g/ha, after 13 days; read-out: Percentage damage IPOHE
Procedure, shortened: as §4

[25] = system: Setaria faberi (SETFA); assay: Pre-emergence biological efficacy (Example 13); settings: Setaria faberi, 312 h; pre-emergence, 1,000 g/ha, after 13 days; read-out: Percentage damage SETFA
Procedure, shortened: as §4

C=Cc1c(NCc2ccco2)nc(-c2ccc(Cl)cc2)nc1C(=O)OC [Compound 7, 2-(4-Chlorophenyl)-5-ethenyl-4-(furan-2-ylmethylamino)-6-methoxycarbonyl-pyrimi-dine]
pest or weed control at 30 g/ha [1]: 20%
pest or weed control at 30 g/ha [2]: 80%
pest or weed control at 30 g/ha [3]: 50%
pest or weed control at 30 g/ha [4]: 60%
pest or weed control at 30 g/ha [5]: 70%
pest or weed control at 30 g/ha [6]: 50%
pest or weed control at 30 g/ha [7]: 40%
pest or weed control at 30 g/ha [8]: 70%
pest or weed control at 30 g/ha [9]: 60%
pest or weed control at 30 g/ha [10]: 0%
plant injury at 30 g/ha [11]: 0%
pest or weed control at 30 g/ha [12]: 40%
pest or weed control at 30 g/ha [13]: 0%
pest or weed control at 1000 g/ha [14]: 30%
pest or weed control at 1000 g/ha [15]: 90%
pest or weed control at 1000 g/ha [16]: 40%
pest or weed control at 1000 g/ha [17]: 100%
pest or weed control at 1000 g/ha [18]: 80%
pest or weed control at 1000 g/ha [19]: 0%
pest or weed control at 1000 g/ha [20]: 50%
pest or weed control at 1000 g/ha [21]: 20%
pest or weed control at 1000 g/ha [22]: 20%
pest or weed control at 1000 g/ha [23]: 100%
pest or weed control at 1000 g/ha [24]: 40%
pest or weed control at 1000 g/ha [25]: 10%
